Source: ChEMBL document CHEMBL4811285, “Effects of N-terminus modified Hx-amides on DNA binding affinity, sequence specificity, cellular uptake, and gene expression” (Bioorg Med Chem Lett, 2021)
The source made the active and inactive calls. The rule behind the calls is not given here.

What was measured:
DNA [1] = assay: Binding affinity to DNA at 5'-AAATTT-3' (unknown origin) upto 25 uM by DNase1 footprinting based autoradiogram analysis; assay type: nucleic-acid assay; details: dose microM <=25
DNA [2] = assay: Binding affinity to DNA at 5'-AAGCTT-3' site (unknown origin) assessed as protection of the site from enzyme digestion at 5 uM by DNase1 footprinting based autoradiogram analysis; assay type: nucleic-acid assay
DNA [3] = assay: Binding affinity to DNA at 5'-ACGGGT-3' (unknown origin) upto 25 uM by DNase1 footprinting based autoradiogram analysis; assay type: nucleic-acid assay; details: dose microM <=25
DNA [4] = assay: Binding affinity to DNA at 5'-ACCGGT-3' (unknown origin) upto 25 uM by DNase1 footprinting based autoradiogram analysis; assay type: nucleic-acid assay; details: dose microM <=25
TOP2A promoter [5] = assay: Binding affinity to 5'-AACGTT-3' DNA (unknown origin) at 10 uM by DNase1 footprinting based Autoradiogram analysis; assay type: nucleic-acid assay
DNA [6] = assay: Binding affinity to DNA at 5'-AAGCTT-3' (unknown origin) upto 25 uM by DNase1 footprinting based autoradiogram analysis; assay type: nucleic-acid assay; details: dose microM <=25
DNA [7] = assay: Binding affinity to DNA at 5'-ACGGGT-3' site (unknown origin) assessed as protection of the site from enzyme digestion at 5 uM by DNase1 footprinting based autoradiogram analysis; assay type: nucleic-acid assay
DNA [8] = assay: Binding affinity to DNA at 5'-ACTAGT-3' (unknown origin) upto 25 uM by DNase1 footprinting based autoradiogram analysis; assay type: nucleic-acid assay; details: dose microM <=25
DNA [9] = assay: Binding affinity to DNA at 5'-ACGCGT-3' (unknown origin) upto 25 uM by DNase1 footprinting based autoradiogram analysis; assay type: nucleic-acid assay; details: dose microM <=25
[10] = Drug uptake in mouse NIH3T3 cells assessed as increase in fluorescence intensity at 1 uM after 24 hr by confocal microscopic analysis relative to control; assay type: ADME, cell-based; details: nih3t3, 24 h
TOP2A promoter [11] = assay: Binding affinity to 5'-AACGTT-3' DNA (unknown origin) at 3 uM by DNase1 footprinting based Autoradiogram analysis; assay type: nucleic-acid assay
[12] = Drug uptake in mouse NIH3T3 cells assessed as increase in fluorescence intensity at 20 uM after 24 hr by confocal microscopic analysis relative to control; assay type: ADME, cell-based; details: nih3t3, 24 h
[13] = Drug uptake in mouse NIH3T3 cells assessed as increase in fluorescence intensity at 10 uM after 24 hr by confocal microscopic analysis relative to control; assay type: ADME, cell-based; details: nih3t3, 24 h
[14] = Induction of TOP2A mRNA expression in human A549 cells assessed as fold increase in mRNA expression at 2 uM incubated for 18 hrs by real time PCR analysis; assay type: cell-based
TOP2A promoter [15] = assay: Binding affinity to 5'-AACGTT-3' DNA promoter TOP2A (unknown origin) at 3 uM by DNase1 footprinting based Autoradiogram analysis; assay type: nucleic-acid assay
TOP2A promoter [16] = assay: Inhibition of 5'-TACGAT-3 (unknown origin) binding to 32P-radiolabeled DNA ICB2 -binding site (unknown origin) assessed as disruption NF-Y/ICB2 interaction using NIH3T3 cell nuclear protein extract at >= 1 uM incubated for 1 hr by electrophoretic mobility shift assay; details: dose microM >=1, time 1.0 hrs
[17] = Drug uptake in mouse NIH3T3 cells assessed as fluorescence in nucleus upto 20 uM incubated for 24 hrs under dark condition by mito-tracker dye based confocal microscopic analysis; assay type: ADME, cell-based; details: nih3t3, 24 h
TOP2A promoter [18] = assay: Inhibition of 5'-TACGAT-3 (unknown origin) binding to 32P-radiolabeled DNA ICB2 -binding site (unknown origin) assessed as disruption NF-Y/ICB2 interaction using NIH3T3 cell nuclear protein extract at >= 3 uM incubated for 1 hr by electrophoretic mobility shift assay; details: dose microM >=3, time 1.0 hrs
TOP2A promoter [19] = assay: Binding affinity to 5'-AACGTT-3' DNA (unknown origin) at 0.5 uM by DNase1 footprinting based Autoradiogram analysis; assay type: nucleic-acid assay
[20] = Drug uptake in mouse NIH3T3 cells assessed as fluorescence in mitochondria upto 20 uM incubated for 24 hrs under dark condition by mito-tracker red dye based confocal microscopic analysis; assay type: ADME; details: nih3t3, 24 h
TOP2A promoter [21] = assay: Inhibition of 5'-TACGAT-3 (unknown origin) binding to 32P-radiolabeled DNA ICB2 -binding site (unknown origin) assessed as disruption NF-Y/ICB2 interaction using NIH3T3 cell nuclear protein extract incubated for 1 hr by electrophoretic mobility shift assay
TOP2A promoter [22] = assay: Binding affinity to 5'-AACGTT-3' DNA (unknown origin) at 1 uM by DNase1 footprinting based Autoradiogram analysis; assay type: nucleic-acid assay

SMILES: COc1ccc(-c2nc3ccc(C(=O)Nc4cn(C)c(C(=O)Nc5cc(C(=O)NCCCN(C)C)n(C)c5)n4)cc3[nH]2)cc1
- Activity (DNA [1]): inactive
- Activity (DNA [2]): Active
- Activity (DNA [3]): inactive
- Activity (DNA [4]): inactive
- Activity (TOP2A promoter [5]): inactive
- Activity (DNA [6]): inactive
- Activity (DNA [7]): Active
- Activity (DNA [8]): inactive
- Activity (DNA [9]): inactive
- Flu intensity [10]: 2.75
- Activity (TOP2A promoter [11]): Active
- Flu intensity [12]: 32.03
- Flu intensity [13]: 13.96

SMILES: CN(C)CCCNC(=O)c1cc(NC(=O)c2nc(NC(=O)c3ccc4nc(-c5ccc(F)cc5)[nH]c4c3)cn2C)cn1C
- fold induction at 2 µM ([14]; Homo sapiens, A549, read-out: FC): 1.7
- Activity (TOP2A promoter [15]): Active
- inhibition (TOP2A promoter [16]): Active
- Flu intensity [10]: 1.12
- Drug uptake [17]: Active
- Activity (TOP2A promoter [11]): Active
- Flu intensity [12]: 15.01
- Flu intensity [13]: 6.08

SMILES: CN(C)CCCNC(=O)c1cc(NC(=O)c2nc(NC(=O)c3ccc4nc(-c5ccco5)[nH]c4c3)cn2C)cn1C
- inhibition (TOP2A promoter [18]): Active

SMILES: COc1ccc(-c2nc3ccc(C(=O)Nc4cn(C)c(C(=O)Nc5cc(C(=O)NCCCN(C)C)n(C)c5)n4)cc3[nH]2)cn1
- inhibition (TOP2A promoter [18]): Active

SMILES: CN(C)CCCNC(=O)c1cc(NC(=O)c2nc(NC(=O)c3ccc4nc(-c5cc6ccccc6o5)[nH]c4c3)cn2C)cn1C
- inhibition (TOP2A promoter [18]): Active

SMILES: CN(C)CCCNC(=O)c1cc(NC(=O)c2nc(NC(=O)c3ccc4nc(-c5ccncc5)[nH]c4c3)cn2C)cn1C
- Activity ([14]; human, a549, 18 h, 2 µM): Not Active
- Activity (TOP2A promoter [19]): Active
- Drug uptake [20]: Active
- inhibition (TOP2A promoter [21]): Dose-Dependent Effect
- Flu intensity [10]: 1.29
- Activity (TOP2A promoter [22]): Active
- Flu intensity [12]: 1.6
- Flu intensity [13]: 1.49
